Experimental data as given in ChEMBL document CHEMBL1139487, “Discovery of corticotropin releasing factor 2 receptor selective sauvagine analogues for treatment of skeletal muscle atrophy” (J Med Chem, 2005).
Square brackets hold non-standard residues; d marks the D form. Peptide text beside a SMILES is read from it. 2Nal = N[C@@H](Cc1ccc2ccccc2c1)C(=O)O; pGlu = O=C1CC[C@@H](C(=O)O)N1

Experiments:
[1] = target: Corticotropin-releasing factor receptor 2 (Mus musculus) (UniProt Q60748); experiment: In vitro agonistic activity against mouse corticotropin releasing factor 2 receptor; type: functional
[2] = target: Corticotropin-releasing factor receptor 2 (Mus musculus, UniProt Q60748); experiment: In vitro effective concentration for mouse corticotropin releasing factor 2 receptor
Mus musculus [3] = experiment: In vivo percentage inhibition against casting induced tibialis anterior mass loss in mouse at a dosage of 30 ug/kg/day; type: functional
[4] = target: T1, Corticotropin-releasing factor receptor 1 (Mus musculus, UniProt P35347); experiment: In vitro effective concentration for mouse corticotropin releasing factor 1 receptor
T1 sequence (P35347 whole entry): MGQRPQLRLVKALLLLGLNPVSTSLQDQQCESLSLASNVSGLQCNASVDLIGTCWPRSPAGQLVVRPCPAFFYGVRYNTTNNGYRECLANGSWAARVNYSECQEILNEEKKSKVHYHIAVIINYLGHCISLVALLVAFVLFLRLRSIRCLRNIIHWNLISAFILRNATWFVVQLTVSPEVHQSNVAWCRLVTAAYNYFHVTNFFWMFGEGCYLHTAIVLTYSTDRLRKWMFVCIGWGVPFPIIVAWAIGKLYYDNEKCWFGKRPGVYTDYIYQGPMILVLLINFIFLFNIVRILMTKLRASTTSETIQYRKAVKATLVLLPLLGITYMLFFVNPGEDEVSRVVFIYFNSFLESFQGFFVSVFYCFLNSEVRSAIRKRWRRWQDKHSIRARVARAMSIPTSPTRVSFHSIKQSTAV

Mus musculus [5] = species: Mus musculus; experiment: Selectivity ratio of EC50s for mouse corticotropin releasing factor receptors 1 and 2
Mus musculus [6] = experiment: In vivo percentage inhibition against casting induced tibialis anterior mass loss in mouse at a dosage of 300 ug/kg/day; type: functional; conditions: read-out: Inhibition
Mus musculus [7] = experiment: In vivo percentage inhibition against casting induced tibialis anterior mass loss in mouse at a dosage of 100 ug/kg/day; type: functional
[8] = target: T2, Corticotropin-releasing factor receptor 1 (Mus musculus) (UniProt P35347); experiment: In vitro agonistic activity against mouse corticotropin releasing factor 1 receptor; type: functional
T2 sequence (whole entry): T1 sequence (P35347 whole entry)

Mus musculus [9] = experiment: In vivo percentage inhibition against casting induced tibialis anterior mass loss in mouse at a dosage of 10 ug/kg/day; type: functional

Chain of Corticotropin-releasing factor receptor 2 (Q60748 whole entry): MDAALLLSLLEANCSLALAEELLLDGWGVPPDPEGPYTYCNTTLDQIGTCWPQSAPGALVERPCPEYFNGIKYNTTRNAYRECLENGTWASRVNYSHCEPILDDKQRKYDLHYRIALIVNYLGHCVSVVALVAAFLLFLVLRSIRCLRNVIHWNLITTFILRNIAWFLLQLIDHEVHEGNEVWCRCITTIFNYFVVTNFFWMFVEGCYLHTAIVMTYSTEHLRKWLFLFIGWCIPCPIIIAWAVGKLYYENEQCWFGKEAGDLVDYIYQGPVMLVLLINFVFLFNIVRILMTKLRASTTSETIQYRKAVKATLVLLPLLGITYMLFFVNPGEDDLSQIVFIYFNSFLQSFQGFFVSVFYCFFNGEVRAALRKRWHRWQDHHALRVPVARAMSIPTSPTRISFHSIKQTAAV
Chain of Corticotropin-releasing factor receptor 2 (Mus musculus) (Q60748 whole entry): as above

SMILES | Emax [1] [%] | EC50 [2] [nM] | inhibition in vivo at 0.03 mg/kg/day (Mus musculus [3]) [%] | EC50 [4] [nM] | Selectivity (Mus musculus [5]) | inhibition in vivo at 0.3 mg/kg/day (Mus musculus [6]) [%] | inhibition in vivo at 0.1 mg/kg/day (Mus musculus [7]) [%] | Emax [8] [%] | inhibition in vivo at 0.01 mg/kg/day (Mus musculus [9]) [%]
CC[C@H](C)[C@H](NC(=O)[C@@H](NC(=O)[C@H](CC(=O)O)NC(=O)[C@H](CC(C)C)NC(=O)[C@H](CC(C)C)NC(=O)[C@H](CC(C)C)NC(=O)[C@H](CCCN=C(N)N)NC(=O)[C@H](CC(N)=O)NC(=O)[C@H](CC(N)=O)NC(=O)[C@H](C)NC(=O)[C@H](C)NC(=O)[C@H](CCC(N)=O)NC(=O)[C@H](CCC(N)=O)NC(=O)[C@H](CCCCN)NC(=O)[C@H](CCC(=O)O)NC(=O)[C@H](CCCCN)NC(=O)[C@H](CCC(=O)O)NC(=O)[C@H](CCC(N)=O)NC(=O)[C@H](CCCCN)NC(=O)[C@H](CCC(=O)O)NC(=O)[C@@H](NC(=O)[C@H](CCC(=O)O)NC(=O)[C@@H](NC(=O)[C@H](CCSC)NC(=O)[C@H](CCCCN)NC(=O)[C@H](CCCN=C(N)N)NC(=O)[C@H](CC(C)C)NC(=O)[C@H](CC(C)C)NC(=O)[C@H](Cc1ccc(O)cc1)NC(=O)[C@@H](NC(=O)[C@@H]1CCCN1C(=O)[C@H](CC(C)C)NC(=O)[C@H](CC(=O)O)NC(=O)[C@@H](NC(=O)[C@H](CO)NC(=O)[C@@H](NC(=O)[C@@H]1CCCN1C(=O)[C@@H]1CCCN1C(=O)CNC(=O)[C@@H]1CCC(=O)N1)[C@@H](C)CC)[C@@H](C)CC)[C@@H](C)O)[C@@H](C)CC)[C@@H](C)CC)[C@@H](C)O)C(=O)O | 82 | 18.2 | 3 | > 1000 | > 55 | 59 | 25 | 48 | 
CC[C@H](C)[C@H](NC(=O)[C@@H](NC(=O)[C@H](CC(=O)O)NC(=O)[C@H](CC(C)C)NC(=O)[C@H](CC(C)C)NC(=O)[C@H](CC(C)C)NC(=O)[C@H](CCCN=C(N)N)NC(=O)[C@H](CC(N)=O)NC(=O)[C@H](CC(N)=O)NC(=O)[C@H](C)NC(=O)[C@H](C)NC(=O)[C@H](CCC(N)=O)NC(=O)[C@H](CCC(N)=O)NC(=O)[C@H](CCCCN)NC(=O)[C@H](CCC(=O)O)NC(=O)[C@H](CCCCN)NC(=O)[C@H](CCC(=O)O)NC(=O)[C@H](CCC(N)=O)NC(=O)[C@H](CCCCN)NC(=O)[C@H](CCC(=O)O)NC(=O)[C@@H](NC(=O)[C@H](CCC(=O)O)NC(=O)[C@@H](NC(=O)[C@H](CCSC)NC(=O)[C@H](CCCCN)NC(=O)[C@H](CCCN=C(N)N)NC(=O)[C@H](CC(C)C)NC(=O)[C@H](CC(C)C)NC(=O)[C@H](CC(C)C)NC(=O)[C@@H](NC(=O)[C@@H]1CCCN1C(=O)[C@H](CC(C)C)NC(=O)[C@H](CC(=O)O)NC(=O)[C@@H](NC(=O)[C@H](CO)NC(=O)[C@@H](NC(=O)[C@@H]1CCCN1C(=O)[C@@H]1CCCN1C(=O)CNC(=O)[C@@H]1CCC(=O)N1)[C@@H](C)CC)[C@@H](C)CC)[C@@H](C)CC)[C@@H](C)CC)[C@@H](C)CC)[C@@H](C)O)C(=O)O | 88 | 15.6 | 66 | > 1000 | > 64 |  | 91 | 72 | 10
CC[C@H](C)[C@H](NC(=O)[C@@H](NC(=O)[C@H](CC(=O)O)NC(=O)[C@H](CC(C)C)NC(=O)[C@H](CC(C)C)NC(=O)[C@H](CC(C)C)NC(=O)[C@H](CCCN=C(N)N)NC(=O)[C@H](CC(N)=O)NC(=O)[C@H](CC(N)=O)NC(=O)[C@H](C)NC(=O)[C@H](C)NC(=O)[C@H](CCC(N)=O)NC(=O)[C@H](CCC(N)=O)NC(=O)[C@H](CCCCN)NC(=O)[C@H](CCC(=O)O)NC(=O)[C@H](CCCCN)NC(=O)[C@H](CCC(=O)O)NC(=O)[C@H](CCC(N)=O)NC(=O)[C@H](CCCCN)NC(=O)[C@H](CCC(=O)O)NC(=O)[C@@H](NC(=O)[C@H](CCC(=O)O)NC(=O)[C@@H](NC(=O)[C@H](CCSC)NC(=O)[C@H](CCCCN)NC(=O)[C@H](CCCN=C(N)N)NC(=O)[C@H](CC(C)C)NC(=O)[C@H](CC(C)C)NC(=O)[C@H](Cc1c[nH]c2ccccc12)NC(=O)[C@@H](NC(=O)[C@@H]1CCCN1C(=O)[C@H](CC(C)C)NC(=O)[C@H](CC(=O)O)NC(=O)[C@@H](NC(=O)[C@H](CO)NC(=O)[C@@H](NC(=O)[C@@H]1CCCN1C(=O)[C@@H]1CCCN1C(=O)CNC(=O)[C@@H]1CCC(=O)N1)[C@@H](C)CC)[C@@H](C)CC)[C@@H](C)O)[C@@H](C)CC)[C@@H](C)CC)[C@@H](C)O)C(=O)O | 100 | 15.2 | 84 | > 1000 | > 66 |  | 91 | 43 | 30
CC[C@H](C)[C@H](NC(=O)[C@@H](NC(=O)[C@H](CC(=O)O)NC(=O)[C@H](CC(C)C)NC(=O)[C@H](CC(C)C)NC(=O)[C@H](CC(C)C)NC(=O)[C@H](CCCN=C(N)N)NC(=O)[C@H](CC(N)=O)NC(=O)[C@H](CC(N)=O)NC(=O)[C@H](C)NC(=O)[C@H](C)NC(=O)[C@H](CCC(N)=O)NC(=O)[C@H](CCC(N)=O)NC(=O)[C@H](CCCCN)NC(=O)[C@H](CCC(=O)O)NC(=O)[C@H](CCCCN)NC(=O)[C@H](CCC(=O)O)NC(=O)[C@H](CCC(N)=O)NC(=O)[C@H](CCCCN)NC(=O)[C@H](CCC(=O)O)NC(=O)[C@@H](NC(=O)[C@H](CCC(=O)O)NC(=O)[C@@H](NC(=O)[C@H](CCSC)NC(=O)[C@H](CCCCN)NC(=O)[C@H](CCCN=C(N)N)NC(=O)[C@H](CC(C)C)NC(=O)[C@H](Cc1ccc2ccccc2c1)NC(=O)[C@H](Cc1c[nH]c2ccccc12)NC(=O)[C@H](CC(C)C)NC(=O)[C@@H]1CCCN1C(=O)[C@H](CC(C)C)NC(=O)[C@H](CC(=O)O)NC(=O)[C@@H](NC(=O)[C@H](CO)NC(=O)[C@@H](NC(=O)[C@@H]1CCCN1C(=O)[C@@H]1CCCN1C(=O)CNC(=O)[C@@H]1CCC(=O)N1)[C@@H](C)CC)[C@@H](C)CC)[C@@H](C)CC)[C@@H](C)CC)[C@@H](C)O)C(=O)O ([pGlu]GPPISIDLPLW[2Nal]LRKMIEIEKQEKEKQQAANNRLLLDTI-OH) | 73 | 3.3 | 45 | 63.4 | 19 |  | 79 | 100 | 53
CC[C@H](C)[C@H](NC(=O)[C@@H](NC(=O)[C@H](CC(=O)O)NC(=O)[C@H](CC(C)C)NC(=O)[C@H](CC(C)C)NC(=O)[C@H](CC(C)C)NC(=O)[C@H](CCCN=C(N)N)NC(=O)[C@H](CC(N)=O)NC(=O)[C@H](CC(N)=O)NC(=O)[C@H](C)NC(=O)[C@H](C)NC(=O)[C@H](CCC(N)=O)NC(=O)[C@H](CCC(N)=O)NC(=O)[C@H](CCCCN)NC(=O)[C@H](CCC(=O)O)NC(=O)[C@H](CCCCN)NC(=O)[C@H](CCC(=O)O)NC(=O)[C@H](CCC(N)=O)NC(=O)[C@H](CCCCN)NC(=O)[C@H](CCC(=O)O)NC(=O)[C@@H](NC(=O)[C@H](CCC(=O)O)NC(=O)[C@@H](NC(=O)[C@H](CCSC)NC(=O)[C@H](CCCCN)NC(=O)[C@H](CCCN=C(N)N)NC(=O)[C@H](CC(C)C)NC(=O)[C@H](CC(C)C)NC(=O)[C@H](Cc1ccc(O)cc1)NC(=O)[C@@H](NC(=O)[C@@H]1CCCN1C(=O)[C@H](CC(C)C)NC(=O)[C@H](CC(=O)O)NC(=O)[C@@H](NC(=O)[C@H](CO)NC(=O)[C@@H](NC(=O)[C@@H]1CCCN1C(=O)[C@@H]1CCCN1C(=O)CNC(=O)[C@@H]1CCC(=O)N1)[C@@H](C)CC)[C@@H](C)CC)[C@@H](C)CC)[C@@H](C)CC)[C@@H](C)CC)[C@@H](C)O)C(=O)O | 100 |  | 24 |  | > 45 | 58 | 38 | 8 | 
CC[C@H](C)[C@H](NC(=O)[C@@H](NC(=O)[C@H](CC(=O)O)NC(=O)[C@H](CC(C)C)NC(=O)[C@H](CC(C)C)NC(=O)[C@H](CC(C)C)NC(=O)[C@H](CCCN=C(N)N)NC(=O)[C@H](CC(N)=O)NC(=O)[C@H](CC(N)=O)NC(=O)[C@H](C)NC(=O)[C@H](C)NC(=O)[C@H](CCC(N)=O)NC(=O)[C@H](CCC(N)=O)NC(=O)[C@H](CCCCN)NC(=O)[C@H](CCC(=O)O)NC(=O)[C@H](CCCCN)NC(=O)[C@H](CCC(=O)O)NC(=O)[C@H](CCC(N)=O)NC(=O)[C@H](CCCCN)NC(=O)[C@H](CCC(=O)O)NC(=O)[C@@H](NC(=O)[C@H](CCC(=O)O)NC(=O)[C@@H](NC(=O)[C@H](CCSC)NC(=O)[C@H](CCCCN)NC(=O)[C@H](CCCN=C(N)N)NC(=O)[C@H](CC(C)C)NC(=O)[C@H](CC(C)C)NC(=O)[C@H](CCC(N)=O)NC(=O)[C@H](Cc1ccccc1)NC(=O)[C@@H]1CCCN1C(=O)[C@H](CC(C)C)NC(=O)[C@H](CC(=O)O)NC(=O)[C@@H](NC(=O)[C@H](CO)NC(=O)[C@@H](NC(=O)[C@@H]1CCCN1C(=O)[C@@H]1CCCN1C(=O)CNC(=O)[C@@H]1CCC(=O)N1)[C@@H](C)CC)[C@@H](C)CC)[C@@H](C)CC)[C@@H](C)CC)[C@@H](C)O)C(=O)O | 100 |  | 58 |  | 62 | 50 | 46 | 64 | 
